According to the NIST ThermoML archive (doi:10.1016/j.jct.2010.05.011):

How the values were obtained:
[1] = refractive index (Na D-line) (dimensionless); conditions: 101.33 kPa, Liquid, Standard Abbe refractometry
[2] = 101.33 kPa, Liquid; for speed of sound: Sing-around technique in a fixed-path interferometer; for mass density: Vibrating tube method; for viscosity: Capillary tube (Ostwald / Ubbelohde) method

CCOS(=O)(=O)[O-].CCc1cccc[n+]1CC [1,2-diethylpyridinium ethylsulfate]
Conditions | mass density, [2] [kg/m3] | refractive index, [1] | speed of sound, [2] [m/s] | viscosity, [2] [mPa·s]
293.15 K | 1223.6 | 1.5146 | 1759.3 | –
298.15 K | 1220.2 | 1.51328 | 1745.6 | 324.7
303.15 K | 1217 | 1.51192 | 1731.3 | 233.2
308.15 K | 1213.9 | 1.51057 | 1718.6 | 175.8
313.15 K | 1210.3 | 1.5092 | 1705.7 | 135.5
318.15 K | 1206.8 | 1.50788 | 1693 | 104
323.15 K | 1203.4 | 1.50648 | 1680.5 | 83.3
328.15 K | 1200.1 | 1.50513 | 1668.1 | 67.2
333.15 K | 1196.8 | 1.50376 | 1656.2 | 55
338.15 K | 1193.6 | 1.50239 | 1644.3 | 45.6
343.15 K | 1190.3 | 1.5009 | 1632.7 | 38.12

CCc1cccc[n+]1C.COS(=O)(=O)[O-] [2-ethyl-1-methylpyridinium methyl sulfate]
Conditions | mass density, [2] [kg/m3] | refractive index, [1] | speed of sound, [2] [m/s] | viscosity, [2] [mPa·s]
293.15 K | 1288.3 | 1.52031 | 1869.2 | –
298.15 K | 1284.7 | 1.51902 | 1856 | 4559
303.15 K | 1281.3 | 1.5177 | 1842.4 | 3207
308.15 K | 1277.9 | 1.5164 | 1830.5 | 2329
313.15 K | 1274.49 | 1.51508 | 1818.4 | 1728
318.15 K | 1271.15 | 1.51374 | 1806.5 | 1293
323.15 K | 1267.6 | 1.51245 | 1794.9 | 1012
328.15 K | 1264.5 | 1.51115 | 1783 | 802
333.15 K | 1261.3 | 1.50982 | 1770.2 | 646
338.15 K | 1258.1 | 1.50852 | 1758.5 | 528
343.15 K | 1254 | 1.50722 | 1747 | 437

COS(=O)(=O)[O-].C[n+]1ccccc1 [1-methylpyridinium methylsulfate]
Conditions | mass density, [2] [kg/m3] | refractive index, [1] | speed of sound, [2] [m/s] | viscosity, [2] [mPa·s]
293.15 K | 1348.22 | 1.51431 | 1888.6 | –
298.15 K | 1344.83 | 1.51296 | 1876.4 | 116.2
303.15 K | 1341.44 | 1.51162 | 1864.4 | 91
308.15 K | 1338.07 | 1.51029 | 1852.6 | 73.1
313.15 K | 1334.71 | 1.50895 | 1840.9 | 59.7
318.15 K | 1331.35 | 1.50764 | 1829.4 | 49.3
323.15 K | 1328.01 | 1.50629 | 1817.9 | 41.29
328.15 K | 1324.69 | 1.50497 | 1806.5 | 35.41
333.15 K | 1321.38 | 1.50361 | 1795.2 | 30.22
338.15 K | 1318.09 | 1.50226 | 1784 | 26.16
343.15 K | 1314.82 | 1.5009 | 1772.8 | 22.77

COS(=O)(=O)[O-].Cc1ccc[n+](C)c1 [1,3-dimethylpyridinium methyl sulfate]
Conditions | mass density, [2] [kg/m3] | refractive index, [1] | speed of sound, [2] [m/s] | viscosity, [2] [mPa·s]
293.15 K | 1305.87 | 1.5147 | 1834.9 | –
298.15 K | 1302.51 | 1.5133 | 1822.2 | 128.6
303.15 K | 1299.14 | 1.51184 | 1809.7 | 97.1
308.15 K | 1295.77 | 1.51051 | 1797.5 | 76.8
313.15 K | 1292.42 | 1.50911 | 1785.4 | 61.2
318.15 K | 1289.07 | 1.5077 | 1773.5 | 49.6
323.15 K | 1285.74 | 1.5062 | 1761.7 | 40.86
328.15 K | 1282.42 | 1.50472 | 1750 | 34.19
333.15 K | 1279.11 | 1.50331 | 1738.4 | 28.8
338.15 K | 1275.82 | 1.50193 | 1726.9 | 24.58
343.15 K | 1272.55 | 1.50046 | 1715.6 | 21.15
